# Laboratory results reported in patent US20050153315A1, “Dimethylarginine dimethylaminohydrolases” (UNIVERSITY COLLEGE LONDON, priority 1999, published 2005).
# Experiments:
# Assay type in all cases: biochemical
# recombinant human DDAHII = molecular target: T1, recombinant human DDAHII (Homo sapiens, UniProt O95865); assay: DDAH assay, [14C]L-NMMA to [14C]citrulline, lysates of E. coli expressing recombinant human DDAHII; settings: E. coli lysate, 37° C., 60 min, pH 6.5; for effect of competition on metabolism of [14C] L-NMMA by recombinant DDAHII: molar excess of cold competitor
# T1 construct: The entire human DDAHII open reading frame was PCR amplified from oligo dT primed human kidney cDNA; made in house; host or cells: E. coli DH5α, soluble fraction of the lysate, not purified
# T1 sequence (O95865 1-285): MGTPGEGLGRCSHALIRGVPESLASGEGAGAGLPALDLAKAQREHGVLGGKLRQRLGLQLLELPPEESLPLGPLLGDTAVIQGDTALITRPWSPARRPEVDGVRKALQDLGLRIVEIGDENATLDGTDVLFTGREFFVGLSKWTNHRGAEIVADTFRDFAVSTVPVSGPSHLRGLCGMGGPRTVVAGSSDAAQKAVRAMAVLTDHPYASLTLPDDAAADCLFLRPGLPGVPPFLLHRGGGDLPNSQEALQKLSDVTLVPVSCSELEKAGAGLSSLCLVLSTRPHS
# Excerpt: The entire human DDAHII open reading frame was PCR amplified from oligo dT primed human kidney cDNA using oligos HDDAHII.1 and HDDAHII.2. Oligo HDDAH II.1 is complementary to base pairs 2-15 of the human DDAHII cDNA and contains an EcoRI site in frame with the EcoTI site of pPROX.HTa (Life Technologies). HDDAHI.2 is complementary to base pairs 858-840 of the human DDAHII cDNA and contains an artificial XbaI site. PCR produced a single product of ˜850 bp which was digested with EcoRI and Xbai, ligated into EcoRI and XbaI digested pRPROX.HTa and transformed into compotent E.coli DH5α. A positive clone (pPDDAHII) containing an insert of 858 bp was identified and the insert sequenced on both stands. For expression of recombinant human DDAHII, E.coli were grown in liquid culture at 25 ° C. to an OD600 of 0.5-0.6. Expression was then induced by the addition of IPTG to a final concentration of 1 mM and incubation continued for a further two hours. Following induction, cells were collected by centrifugation, weighed and resuspended in ice cold assay buffer (100 mM Na2HPO4 pH 6.5) at 1 g cells/ml. Cells were disrupted by sonication (6×10 secs, with 10 sec. intervals) and centriguged at 50,000 g to separate soluble material from insoluble cell debris.
# Aliquots of E.coli lysates were incubated at 37° C. for 60 min. with […] of 100 mM Na2HPO4 pH 6.5 containing 0.02 μCi [^14C]L-NMMA as described previously (MacAllister et al., 1996, Br. J. Pharmacol. 115, 1001-1004). Following incubation samples were prepared for determination of [^14C] citrulline production by scintillation counting. Reactions were vortexed with 1 ml of 50% (w/v) dowex 50X8-400, centrifuged at 10,000 g for 5 min and then 500 μl of the supernatant was mixed with 5 ml of liquid scintillation fluid and the [^14C] content determined.
# [1] = system: S. coelicolor DDAH (ScDDAH); assay: DDAH assay, cell lysates containing recombinant S. coelicolor DDAH; settings: 10 mM
# Protocol: (§1) The effect of 10 mM ADMA and SDMA on recombinant ScDDAH and paDDAH was studied using the assay conditions described in the material and methods section below. Assays were carried out in triplicate on aliquots of cell lysates containing empty vector, scDDAH cDNA or paDDAH cDNA and data was expressed as a mean of the total number of replicates after subtraction of background. The results shown are the mean of three independent experiments.
# (§2) Samples were assayed by incubating 100 μl of cells lysates with an equal volume of assay mix (100 mM Na2HPO4 pH 6.5, containing 0.02 μCi [^14C] L-NMMA and 100 μM cold L-NMMA) at 37° C. for 60 min, as previously reported. The samples were then prepared for scintillation counting to measure the production of [^14C] citrulline by adding 400 μl of 50% (w/v) Dowex 50X-400 to the reactions, vortexing and centrifugation at 13000 g for 2 min. The [^14C] content of 100 μl of supernatant in 1 ml scintillation fluid was then determined.
# (§3) For expression of the recombinant proteins, a positive clone was picked and grown in liquid media supplemented with 100 μg/ml ampicillin. […]
# [2] = molecular target: T2, P. aeruginosa DDAH (PaDDAH) (Pseudomonas aeruginosa, UniProt Q9I4E3); assay: DDAH assay, cell lysates containing recombinant P. aeruginosa DDAH; settings: 10 mM
# T2 construct: The inserts containing the open reading frames of the bacterial DDAHs were excised from the vector; made in house; host or cells: E. coli DH5α, cell lysate
# T2 sequence (Q9I4E3 whole entry): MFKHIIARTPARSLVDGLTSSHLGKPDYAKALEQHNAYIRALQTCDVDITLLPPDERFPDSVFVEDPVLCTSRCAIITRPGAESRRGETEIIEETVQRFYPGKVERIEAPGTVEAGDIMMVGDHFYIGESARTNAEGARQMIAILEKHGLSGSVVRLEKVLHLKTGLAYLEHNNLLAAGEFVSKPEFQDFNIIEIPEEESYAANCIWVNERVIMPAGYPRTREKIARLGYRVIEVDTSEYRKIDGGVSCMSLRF
# Protocol: as §1, §2, §3
smiles,measurement,setting,value
"CNC(=N)NCC[C@H](N)C(=O)O [4124W, S-2-amino-4(3-methylguanidino)butanoic acid]",effect of DDAH inhibitor on metabolism of [14C] L-NMMA by recombinant DDAHII,recombinant human DDAHII,inhibited
NC(=O)NCCC[C@H](N)C(=O)O [citrulline],effect of competition on metabolism of [14C] L-NMMA by recombinant DDAHII,recombinant human DDAHII,inhibited
"CN(C)C(N)=NCCC[C@H](N)C(=O)O [ADMA, N^GN′^G dimethyl-L-arginine]",effect of competition on metabolism of [14C] L-NMMA by recombinant DDAHII,recombinant human DDAHII,inhibited
same,relative effect on the metabolism of L-NMMA,"[1]; ADMA compared with SDMA, ScDDAH",greater effect than SDMA
same,competition with L-NMMA as substrate (metabolism of [14C] L-NMMA),"[1]; ScDDAH cell lysate, FIG. 7",compete with L-NMMA as substrates
same,relative effect on the metabolism of L-NMMA,"[2]; ADMA compared with SDMA, PaDDAH",greater effect than SDMA
same,competition with L-NMMA as substrate (metabolism of [14C] L-NMMA),"[2]; PaDDAH cell lysate, FIG. 7",compete with L-NMMA as substrates
"CNC(=N)NCCC[C@H](N)C(=O)O [L-NMMA, N^G monomethyl-L-arginine]",effect of competition on metabolism of [14C] L-NMMA by recombinant DDAHII,recombinant human DDAHII,inhibited
